The record followed here is patent US8013156B2 (Exelixis, Inc., priority 2003, dated 2011).

Molecules are shown by their SMILES. Where only a bound is given, the exact number is not on record here.

This assay addresses Tie-2 (Homo sapiens, UniProt Q02763). Briefly: Tie-2 tyrosine kinase activity assay (luciferase/luciferin ATP consumption with pEY substrate, or 33P-ATP incorporation). The note with it: human enzyme Tie-2. It counts as biochemical. On the procedure:
One measure of inhibition is Ki. […] The Ki for a compound is determined from the IC50 based on three assumptions. First, only one compound molecule binds to the enzyme and there is no cooperativity. […] Third, the enzymatic rate of the enzyme-inhibitor complex is zero. The rate data (i.e. compound concentration) are fitted to the equation:
[formula] where V is the observed rate, Vmax, is the rate of the free enzyme, I0 is the inhibitor concentration, E0 is the enzyme concentration, and Kd is the dissociation constant of the enzyme-inhibitor complex.
Tyrosine kinase activity is determined by 1) measurement of kinase-dependent ATP consumption by in the presence of a generic substrate such as […], tyrosine (pEY), by luciferase/luciferin-mediated chemiluminescence or; 2) incorporation of radioactive phosphate derived from ^33P-ATP into a generic substrate which has been adsorbed onto the well surface of polystyrene microtiter plates. Phosphorylated substrate products are quantified by scintillation spectrometry.
Inhibition is indicated as IC50 with following key: A=IC50 less than 50 nM, B=IC50 greater than 50 nM, but less than or equal to 1000 nM, C=IC50 greater than 1000 nM, but less than 10,000 nM, D=IC50 10,000 nM or greater, and “-”=no data available. The abbreviation for human enzyme, Tie-2, is defined as tyrosine kinase with immunoglobulin and EGF repeats.

Tie-2, sequence (Q02763 23-1124): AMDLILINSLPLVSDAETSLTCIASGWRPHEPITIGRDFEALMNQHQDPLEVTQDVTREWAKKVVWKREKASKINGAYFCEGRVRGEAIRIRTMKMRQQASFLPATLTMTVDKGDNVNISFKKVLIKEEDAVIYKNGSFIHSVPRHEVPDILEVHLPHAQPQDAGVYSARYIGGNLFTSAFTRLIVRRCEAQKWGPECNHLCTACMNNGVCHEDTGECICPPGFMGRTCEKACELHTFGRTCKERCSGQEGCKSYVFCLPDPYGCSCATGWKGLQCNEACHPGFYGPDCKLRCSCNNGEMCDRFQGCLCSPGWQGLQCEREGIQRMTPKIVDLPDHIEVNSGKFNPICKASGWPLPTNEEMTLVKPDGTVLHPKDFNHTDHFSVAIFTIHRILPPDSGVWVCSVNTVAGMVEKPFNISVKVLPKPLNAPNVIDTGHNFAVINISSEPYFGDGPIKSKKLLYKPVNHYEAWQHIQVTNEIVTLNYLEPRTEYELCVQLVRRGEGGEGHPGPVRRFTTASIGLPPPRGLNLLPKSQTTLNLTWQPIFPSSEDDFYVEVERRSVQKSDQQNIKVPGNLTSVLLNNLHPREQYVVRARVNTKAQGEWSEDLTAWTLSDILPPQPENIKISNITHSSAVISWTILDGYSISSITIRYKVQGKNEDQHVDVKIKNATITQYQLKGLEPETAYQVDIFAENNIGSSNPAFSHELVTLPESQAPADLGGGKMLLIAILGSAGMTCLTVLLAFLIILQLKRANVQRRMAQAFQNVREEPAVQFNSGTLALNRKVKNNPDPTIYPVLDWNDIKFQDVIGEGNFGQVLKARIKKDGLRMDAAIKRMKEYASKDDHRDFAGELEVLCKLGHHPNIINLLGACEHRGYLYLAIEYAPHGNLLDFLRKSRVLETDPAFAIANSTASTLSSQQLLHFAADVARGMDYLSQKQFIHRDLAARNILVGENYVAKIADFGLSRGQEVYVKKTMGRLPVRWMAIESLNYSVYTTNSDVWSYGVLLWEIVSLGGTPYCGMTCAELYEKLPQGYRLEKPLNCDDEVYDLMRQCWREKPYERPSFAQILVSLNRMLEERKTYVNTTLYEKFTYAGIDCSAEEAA

In the case of `N#Cc1nc(OCc2ccncc2)c(N2CCN(C(=O)Nc3cccc(C(F)(F)F)c3)CC2)nc1C#N` [Example 91, 4-{5,6-dicyano-3-[(pyridin-4-ylmethyl)oxy]pyrazin-2-yl}-N-[3-(trifluoromethyl)phenyl]piperazine-1-carboxamide], the IC50 lay in the range of 50 to 1000 nM. As for `CCc1cccc(NC(=O)N2CCN(c3nccnc3OCc3ccncc3)CC2)c1` [Example 92, N-(3-ethylphenyl)-4-{3-[(pyridin-4-ylmethyl)oxy]pyrazin-2-yl}piperazine-1-carboxamide], the figure is less than 50 nM; as for `CCc1cccc(NC(=O)N2CCN(c3nccnc3OCc3ccncc3)CC2C)c1` (centres unmarked) [Example 93, N-(3-ethylphenyl)-2-methyl-4-{3-[(pyridin-4-ylmethyl)oxy]pyrazin-2-yl}piperazine-1-carboxamide], less than 50 nM; as for `CCc1cccc(NC(=O)N2C(C)CN(c3nccnc3OCc3ccncc3)CC2C)c1` (centres unmarked) [Example 94, N-(3-ethylphenyl)-2,6-dimethyl-4-{3-[(pyridin-4-ylmethyl)oxy]pyrazin-2-yl}piperazine-1-carboxamide], 50 to 1000 nM.

Molecule `CCc1cccc(NC(=O)N2CCN(c3nc4ccccc4nc3OCc3ccncc3)CC2C)c1` (centres unmarked) [Example 95, N-(3-ethylphenyl)-2-methyl-4-{3-[(pyridin-4-ylmethyl)oxy]quinoxalin-2-yl}piperazine-1-carboxamide] showed an IC50 of 50 to 1000 nM. In the case of `O=C(Nc1cc(C(F)(F)F)cc(C(F)(F)F)c1)N1CCN(c2nccnc2CCc2ccncc2)CC1` [Example 96, N-[3,5-bis(trifluoromethyl)phenyl]-4-[3-(2-pyridin-4-ylethyl)pyrazin-2-yl]piperazine-1-carboxamide] it was 50 to 1000 nM; in that of `O=C(Nc1cc(C(F)(F)F)cc(C(F)(F)F)c1)N1CCN(c2ncccc2OCc2ccncc2)CC1` [Example 97, N-[3,5-bis(trifluoromethyl)phenyl]-4-{3-[(pyridin-4-ylmethyl)oxy]pyridin-2-yl}piperazine-1-carboxamide], less than 50 nM. In the case of `Nc1cc(COc2nsnc2N2CCN(C(=O)Nc3cc(C(F)(F)F)cc(C(F)(F)F)c3)CC2)ccn1` [Example 99, 4-(4-{[(2-aminopyridin-4-yl)methyl]oxy}-1,2,5-thiadiazol-3-yl)-N-[3,5-bis(trifluoromethyl)phenyl]piperazine-1-carboxamide] it was less than 50 nM; in that of `CC(C)(C)OC(=O)Nc1cc(COc2nsnc2N2CCN(C(=O)Nc3cc(C(F)(F)F)cc(C(F)(F)F)c3)CC2)ccn1` [Example 100, 1,1-dimethylethyl {4-[({4-[4-({[3,5-bis(trifluoromethyl)phenyl]amino}carbonyl)piperazin-1-yl]-1,2,5-thiadiazol-3-yl}oxy)methyl]pyridin-2-yl}carbamate], less than 50 nM; in that of `COC(=O)Nc1cc(COc2nsnc2N2CCN(C(=O)Nc3cc(C(F)(F)F)cc(C(F)(F)F)c3)CC2)ccn1` [Example 101, methyl {4-[({4-[4-({[3,5-bis(trifluoromethyl)phenyl]amino}carbonyl)piperazin-1-yl]-1,2,5-thiadiazol-3-yl}oxy)methyl]pyridin-2-yl}carbamate], less than 50 nM. In the case of `Nc1cc(COc2nsnc2N2CCNCC2)ccn1` [Example 102, 4-{[(4-piperazin-1-yl-1,2,5-thiadiazol-3-yl)oxy]methyl}pyridin-2-amine] it was no less than 10000 nM; in that of `O=C(Nc1ccc(Cl)cc1)N1CCN(c2ncccc2OCc2ccncc2)CC1` [Example 103, N-(4-chlorophenyl)-4-{3-[(pyridin-4-ylmethyl)oxy]pyridin-2-yl}piperazine-1-carboxamide], no less than 10000 nM. In the case of `Nc1nccc(COc2nsnc2N2CCN(C(=O)Nc3cc(C(F)(F)F)cc(C(F)(F)F)c3)CC2)n1` [Example 104, 4-(4-{[(2-aminopyrimidin-4-yl)methyl]oxy}-1,2,5-thiadiazol-3-yl)-N-[3,5-bis(trifluoromethyl)phenyl]piperazine-1-carboxamide], the IC50 was less than 50 nM. For `O=C(Nc1cccc(Cl)c1)N1CCN(c2ncccc2OCc2ccncc2)CC1` [Example 105, N-(3-chlorophenyl)-4-{3-[(pyridin-4-ylmethyl)oxy]pyridin-2-yl}piperazine-1-carboxamide], the IC50 was 50 to 1000 nM. As for `CCCNc1cc(COc2nsnc2N2CCNCC2)ccn1` [Example 106, 4-{[(4-piperazin-1-yl-1,2,5-thiadiazol-3-yl)oxy]methyl}-N-propylpyridin-2-amine], the figure is no less than 10000 nM; as for `CCCNc1cc(COc2nsnc2N2CCN(C(=O)Nc3cc(C(F)(F)F)cc(C(F)(F)F)c3)CC2)ccn1` [Example 107, N-[3,5-bis(trifluoromethyl)phenyl]-4-[4-({[2-(propylamino)pyridin-4-yl]methyl}oxy)-1,2,5-thiadiazol-3-yl]piperazine-1-carboxamide], 50 to 1000 nM; as for `CNc1nccc(COc2nsnc2N2CCN(C(=O)Nc3cc(C(F)(F)F)cc(C(F)(F)F)c3)CC2)n1` [Example 108, N-[3,5-bis(trifluoromethyl)phenyl]-4-[4-({[2-(methylamino)pyrimidin-4-yl]methyl}oxy)-1,2,5-thiadiazol-3-yl]piperazine-1-carboxamide], less than 50 nM. Turning to `CNc1cc(COc2nsnc2N2CCNCC2)ccn1` [Example 109, N-methyl-4-{[(4-piperazin-1-yl-1,2,5-thiadiazol-3-yl)oxy]methyl}pyridin-2-amine], the IC50 is no less than 10000 nM. In the case of `CCCCNc1cc(COc2nsnc2N2CCNCC2)ccn1` [Example 111, N-butyl-4-{[(4-piperazin-1-yl-1,2,5-thiadiazol-3-yl)oxy]methyl}pyridin-2-amine], the IC50 was no less than 10000 nM. Molecule `CNc1cc(COc2nsnc2N2CCN(C(=O)Nc3cc(C(F)(F)F)cc(C(F)(F)F)c3)CC2)ccn1` [Example 112, N-[3,5-bis(trifluoromethyl)phenyl]-4-[4-({[2-(methylamino)pyridin-4-yl]methyl}oxy)-1,2,5-thiadiazol-3-yl]piperazine-1-carboxamide] displayed an IC50 of less than 50 nM. In the case of `CCNc1cc(COc2nsnc2N2CCN(C(=O)Nc3cc(C(F)(F)F)cc(C(F)(F)F)c3)CC2)ccn1` [Example 113, N-[3,5-bis(trifluoromethyl)phenyl]-4-[4-({[2-(ethylamino)pyridin-4-yl]methyl}oxy)-1,2,5-thiadiazol-3-yl]piperazine-1-carboxamide] it was less than 50 nM; in that of `CCCCNc1cc(COc2nsnc2N2CCN(C(=O)Nc3cc(C(F)(F)F)cc(C(F)(F)F)c3)CC2)ccn1` [Example 114, N-[3,5-bis(trifluoromethyl)phenyl]-4-[4-({[2-(butylamino)pyridin-4-yl]methyl}oxy)-1,2,5-thiadiazol-3-yl]piperazine-1-carboxamide], 50 to 1000 nM. As for `O=C(Nc1cc(C(F)(F)F)cc(C(F)(F)F)c1)N1CCN(c2nsnc2OCc2ccnc(NCc3ccccc3)c2)CC1` [Example 115, N-[3,5-bis(trifluoromethyl)phenyl]-4-{4-[({2-[(phenylmethyl)amino]pyridin-4-yl}methyl)oxy]-1,2,5-thiadiazol-3-yl}piperazine-1-carboxamide], the figure is 50 to 1000 nM. In the case of `CC(C)Nc1nccc(COc2nsnc2N2CCN(C(=O)Nc3cc(C(F)(F)F)cc(C(F)(F)F)c3)CC2)n1` [Example 116, N-[3,5-bis(trifluoromethyl)phenyl]-4-{4-[({2-[(1-methylethyl)amino]pyrimidin-4-yl}methyl)oxy]-1,2,5-thiadiazol-3-yl}piperazine-1-carboxamide] it was 50 to 1000 nM; in that of `O=C(Nc1cc(C(F)(F)F)cc(C(F)(F)F)c1)N1CCN(c2nsnc2OCc2ccnc(NCc3ccccc3)n2)CC1` [Example 117, N-[3,5-bis(trifluoromethyl)phenyl]-4-{4-[({2-[(phenylmethyl)amino]pyrimidin-4-yl}methyl)oxy]-1,2,5-thiadiazol-3-yl}piperazine-1-carboxamide], 50 to 1000 nM. In turn, `O=C(Nc1cc(C(F)(F)F)cc(C(F)(F)F)c1)N1CCN(c2nsnc2OCc2ccnc(Nc3ccccc3)n2)CC1` [Example 118, N-[3,5-bis(trifluoromethyl)phenyl]-4-[4-({[2-(phenylamino)pyrimidin-4-yl]methyl}oxy)-1,2,5-thiadiazol-3-yl]piperazine-1-carboxamide] had an IC50 of less than 50 nM. In turn, `CN(C)CCNc1nccc(COc2nsnc2N2CCN(C(=O)Nc3cc(C(F)(F)F)cc(C(F)(F)F)c3)CC2)n1` [Example 119, N-[3,5-bis(trifluoromethyl)phenyl]-4-(4-{[(2-{[2-(dimethylamino)ethyl]amino}pyrimidin-4-yl)methyl]oxy}-1,2,5-thiadiazol-3-yl)piperazine-1-carboxamide] returned an IC50 of 50 to 1000 nM.

In turn, `CN(C)CCNc1cc(COc2nsnc2N2CCN(C(=O)Nc3cc(C(F)(F)F)cc(C(F)(F)F)c3)CC2)ccn1` [Example 120, N-[3,5-bis(trifluoromethyl)phenyl]-4-(4-{[(2-{[2-(dimethylamino)ethyl]amino}pyridin-4-yl)methyl]oxy}-1,2,5-thiadiazol-3-yl)piperazine-1-carboxamide] displayed an IC50 of 50 to 1000 nM. In the case of `CCNc1nccc(COc2nsnc2N2CCN(C(=O)Nc3cc(C(F)(F)F)cc(C(F)(F)F)c3)CC2)n1` [Example 121, N-[3,5-bis(trifluoromethyl)phenyl]-4-[4-({[2-(ethylamino)pyrimidin-4-yl]methyl}oxy)-1,2,5-thiadiazol-3-yl]piperazine-1-carboxamide] it was less than 50 nM.

The term IC50 denotes the midpoint of a concentration-inhibition curve. A lower IC50 goes with inhibition by little substance.
